Source: patent US20250215029A1 (Recludix Pharma, Inc., priority 2022, published 2025)

Legend:
[1] = target: T1, Recombinant STAT3 protein (STAT3 (G127-I722)) (Homo sapiens, UniProt P40763); assay: STAT3 Fluorescence Polarization (FP) Assay; format: binding; settings: STAT3 25 nM, probe 5-FAM-GpYLPQTV-NH2 2 nM, 45-minute incubation; read-out: STAT3 (FP assay IC50)
T1 construct: Recombinant STAT3 protein (STAT3 (G127-I722))
Method in brief: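 Compounds in serial dilution receive a premix of STAT3 (G127-I722, 25 nM) and fluorescent phosphotyrosine peptide 5-FAM-GpYLPQTV-NH2 (2 nM) at pH 7.4. After 45 min at room temperature, FP is measured and IC50 derived by nonlinear regression.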

[2] = target: T2, Recombinant STAT6 protein (STAT6 (W123-T658)) (Homo sapiens, UniProt P42226); assay: STAT6 Fluorescence Polarization (FP) Assay; format: binding; settings: STAT6 250 nM, probe 5-FAM-Ap[…]-NH2 2 nM, 45-minute incubation; read-out: STAT6 (FP assay IC50)
T2 construct: Recombinant STAT6 protein (STAT6 (W123-T658))
T2 sequence (P42226 123-658): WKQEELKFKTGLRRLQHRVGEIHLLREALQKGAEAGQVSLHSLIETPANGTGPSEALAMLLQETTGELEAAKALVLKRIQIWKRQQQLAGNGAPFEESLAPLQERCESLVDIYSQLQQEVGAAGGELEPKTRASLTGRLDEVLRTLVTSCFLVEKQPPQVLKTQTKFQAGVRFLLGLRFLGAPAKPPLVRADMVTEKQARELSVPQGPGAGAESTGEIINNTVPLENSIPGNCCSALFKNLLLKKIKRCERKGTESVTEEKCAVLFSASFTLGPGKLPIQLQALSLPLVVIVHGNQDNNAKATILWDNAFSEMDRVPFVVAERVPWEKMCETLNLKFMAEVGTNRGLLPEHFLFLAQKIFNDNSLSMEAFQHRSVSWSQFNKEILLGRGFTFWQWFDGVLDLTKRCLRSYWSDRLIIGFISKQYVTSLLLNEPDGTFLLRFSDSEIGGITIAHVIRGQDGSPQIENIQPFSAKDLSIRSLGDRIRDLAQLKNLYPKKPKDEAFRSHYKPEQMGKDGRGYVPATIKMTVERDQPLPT
Method in brief: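 Serially diluted compounds received a premix of STAT6 (W123-T658, 250 nM) and 5-FAM peptide probe (2 nM) in pH 7.4 HEPES buffer containing DTT and Tween 20. Following 45 min at room temperature, FP was recorded. IC50s were fitted by nonlinear regression; values are binned A (≤300 nM), B (>300-3000 nM), C (>3-30 μM), D (>30 μM).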

T1 sequence (P40763 127-722): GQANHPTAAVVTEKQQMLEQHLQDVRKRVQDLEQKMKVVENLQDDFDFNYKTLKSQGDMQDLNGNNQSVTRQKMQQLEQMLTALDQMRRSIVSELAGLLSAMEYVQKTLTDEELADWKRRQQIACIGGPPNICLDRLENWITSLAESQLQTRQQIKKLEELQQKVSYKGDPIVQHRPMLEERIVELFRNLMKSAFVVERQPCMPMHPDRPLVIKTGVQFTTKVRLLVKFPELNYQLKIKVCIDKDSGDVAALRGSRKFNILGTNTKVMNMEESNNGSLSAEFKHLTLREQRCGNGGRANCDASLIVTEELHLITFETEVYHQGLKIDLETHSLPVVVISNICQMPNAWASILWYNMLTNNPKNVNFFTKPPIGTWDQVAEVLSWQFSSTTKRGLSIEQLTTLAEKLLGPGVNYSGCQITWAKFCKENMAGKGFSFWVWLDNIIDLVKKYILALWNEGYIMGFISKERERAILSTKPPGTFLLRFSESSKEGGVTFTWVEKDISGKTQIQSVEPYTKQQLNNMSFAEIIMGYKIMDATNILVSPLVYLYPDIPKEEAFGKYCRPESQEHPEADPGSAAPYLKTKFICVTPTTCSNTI

SMILES	IC50 [1]	IC50 [2]
Cn1ccc(C2CN(C(=O)[C@@H]3CC[C@@H]4CCCC[C@H](NC(=O)c5cc6cc(C(F)(F)P(=O)(O)O)ccc6s5)C(=O)N43)C2)n1 [Compound 65, (difluoro(2-(((3S,6S,10S)-3-(3-(1-methyl-1H-pyrazol-3-yl)azetidine-1-carbonyl)-5-oxodecahydropyrrolo [1,2-a]azocin-6-yl)carbamoyl)benzo[b]thiophen-5-yl)methyl) phosphonic acid]	100 to 1000 nM	300 to 3000 nM
CS(=N)(=O)CC1CN(C(=O)[C@@H]2CC[C@@H]3CCCC[C@H](NC(=O)c4cc5cc(C(F)(F)P(=O)(O)O)ccc5s4)C(=O)N32)C1 (stereo partly drawn) [Compound 66, (difluoro(2-(((3S,6S,10aS)-3-(3-((S-methyl-sulfonimidoyl)methyl)azetidine-1-carbonyl)-5-oxodecahydropyrrolo [1,2-a]azocin-6-yl)carbamoyl)benzo[b]thiophen-5-yl)methyl) phosphonic acid]	< 100 nM	3000 to 30000 nM
O=C(N[C@H]1CCCC[C@H]2CC[C@@H](C(=O)N3CC(c4c[nH]cn4)C3)N2C1=O)c1cc2cc(C(F)(F)P(=O)(O)O)ccc2s1 [Compound 67, ((2-(((3S,6S,10aS)-3-(3-(1H-imidazol-4-yl)azetidine-1-carbonyl)-5-oxodecahydro-pyrrolo[1,2-a]azocin-6-yl)carbamoyl)benzo[b]thiophen-5-yl)difluoromethyl) phosphonic acid]	< 100 nM	300 to 3000 nM
Cc1cnn(C2CN(C(=O)[C@@H]3CC[C@@H]4CCCC[C@H](NC(=O)c5cc6cc(C(F)(F)P(=O)(O)O)ccc6s5)C(=O)N43)C2)c1 [Compound 68, (difluoro(2-(((3S,6S,10aS)-3-(3-(4-methyl-1H-pyrazol-1-yl)azetidine-1-carbonyl)-5-oxodecahydropyrrolo [1,2-a]azocin-6-yl)carbamoyl)benzo[b]thiophen-5-yl)methyl) phosphonic acid]	100 to 1000 nM	3000 to 30000 nM
Cn1nccc1C=C1CN(C(=O)[C@@H]2CC[C@@H]3CCCC[C@H](NC(=O)c4cc5cc(C(F)(F)P(=O)(O)O)ccc5s4)C(=O)N32)C1 [Compound 69, (difluoro(2-(((3S,6S,10aS)-3-(3-((1-methyl-1H-pyrazol-5-yl)methylene)azetidine-1-carbonyl)-5-oxodecahydropyrrolo [1,2-a]azocin-6-yl)carbamoyl)benzo[b]thiophen-5-yl)methyl) phosphonic acid]	100 to 1000 nM	300 to 3000 nM
N=S1(=O)CC2(CN(C(=O)[C@@H]3CC[C@@H]4CCCC[C@H](NC(=O)c5cc6cc(C(F)(F)P(=O)(O)O)ccc6s5)C(=O)N43)C2)C1 [Compound 70, (difluoro(2-(((3S,6S,10aS)-3-(2-imino-2-oxido-2l6-thia-6-azaspiro[3.3]heptane-6-carbonyl)-5-oxodecahydropyrrolo [1,2-a]azocin-6-yl)carbamoyl)benzo[b]thiophen-5-yl)methyl) phosphonic acid]	100 to 1000 nM	3000 to 30000 nM
O=C(N[C@H]1CCCC[C@H]2CC[C@@H](C(=O)N3CC4(CNS(=O)(=O)C4)C3)N2C1=O)c1cc2cc(C(F)(F)P(=O)(O)O)ccc2s1 [Compound 71, ((2-(((3S,6S,10aS)-3-(6,6-dioxido-6-thia-2,7-diazaspiro[3.4]octane-2-carbonyl)-5-oxodecahydropyrrolo [1,2-a]azocin-6-yl)carbamoyl)benzo[b]thiophen-5-yl)difluoromethyl) phosphonic acid]	100 to 1000 nM	300 to 3000 nM
O=C(N[C@H]1CCCC[C@H]2CC[C@@H](C(=O)N3CC4(CC(C5CC5)=NO4)C3)N2C1=O)c1cc2cc(C(F)(F)P(=O)(O)O)ccc2s1 [Compound 72, ((2-(((3S,6S,10aS)-3-(7-cyclopropyl-5-oxa-2,6-diazaspiro[3.4]oct-6-ene-2-carbonyl)-5-oxodecahydropyrrolo [1,2-a]azocin-6-yl)carbamoyl)benzo[b]thiophen-5-yl)difluoromethyl) phosphonic acid]	100 to 1000 nM	300 to 3000 nM
CS(=N)(=O)C1CN(C(=O)[C@@H]2CC[C@@H]3CCCC[C@H](NC(=O)c4cc5cc(C(F)(F)P(=O)(O)O)ccc5s4)C(=O)N32)C1 (stereo partly drawn) [Compound 73, (difluoro(2-(((3S,6S,10aS)-3-(3-(S-methylsulfonimidoyl)azetidine-1-carbonyl)-5-oxodecahydropyrrolo [1,2-a]azocin-6-yl)carbamoyl)benzo[b]thiophen-5-yl)methyl) phosphonic acid]	100 to 1000 nM	3000 to 30000 nM
O=C(N[C@H]1CCCCC[C@H]2[C@H](O)C[C@@H](C(=O)N3CC(C(=O)N4CCOCC4)C3)N2C1=O)c1cc2cc(C(F)(F)P(=O)(O)O)ccc2s1 [Compound 77, (difluoro(2-(((1R,3S,6S, 11aS)-1-hydroxy-3-(3-(morpholine-4-carbonyl)azetidine-1-carbonyl)-5-oxodecahydro-1H-pyrrolo[1,2-a]azonin-6-yl)carbamoyl)benzo[b]thiophen-5-yl)methyl) phosphonic acid]	100 to 1000 nM	3000 to 30000 nM
O=C(N[C@H]1CCC[C@H]2CC[C@@H](C(=O)N3CC(c4cccnc4)C3)N2C1=O)c1cc2cc(CP(=O)(O)O)ccc2s1 [Compound 78, ((2-(((3S,6S,9aS)-5-oxo-3-(3-(pyridin-3-yl)azetidine-1-carbonyl)octahydro-1H-pyrrolo[1,2-a]azepin-6-yl)carbamoyl)benzo[b]thiophen-5-yl)methyl) phosphonic acid]	100 to 1000 nM	> 30000 nM
C[C@@H]1[C@@H](n2ccnc2)CN1C(=O)[C@@H]1CC[C@@H]2CCC[C@H](NC(=O)c3cc4cc(C(F)(F)P(=O)(O)O)ccc4s3)C(=O)N21 [Compound 81, ((2-(((3S,6S,9aS)-3-((2R,3S)-3-(1H-imidazol-1-yl)-2-methylazetidine-1-carbonyl)-5-oxooctahydro-1H-pyrrolo[1,2-a]azepin-6-yl)carbamoyl)benzo[b]thiophen-5-yl)difluoromethyl) phosphonic acid]	< 100 nM	300 to 3000 nM
O=C(N[C@H]1CCCC[C@H]2CC[C@@H](C(=O)N3CC[C@@H](c4ccccc4)C3)N2C1=O)c1cc2cc(C(F)(F)P(=O)(O)O)ccc2s1 [Compound 82, (difluoro(2-(((3S,6S,10aS)-5-oxo-3-((S)-3-phenylpyrrolidine-1-carbonyl)decahydropyrrolo [1,2-a]azocin-6-yl)carbamoyl)benzo[b]thiophen-5-yl)methyl) phosphonic acid]	100 to 1000 nM	≤ 300 nM
C[C@]1(NC(=O)c2cc3cc(C(F)(F)P(=O)(O)O)ccc3s2)CCCC[C@H]2CC[C@@H](C(=O)N3CC(c4ccccn4)C3)N2C1=O [Compound 85, (difluoro(2-(((3S,6S,10aS)-6-methyl-5-oxo-3-(3-(pyridin-2-yl)azetidine-1-carbonyl)decahydropyrrolo [1,2-a]azocin-6-yl)carbamoyl)benzo[b]thiophen-5-yl)methyl) phosphonic acid]	< 100 nM	3000 to 30000 nM
CN(C)S(=O)(=O)N1CCN(C(=O)[C@@H]2CC[C@@H]3CCCC[C@H](NC(=O)c4cc5cc(C(F)(F)P(=O)(O)O)ccc5s4)C(=O)N32)CC1 [Compound 87, ((2-(((3S,6S,10aS)-3-(4-(N,N-dimethylsulfamoyl)piperazine-1-carbonyl)-5-oxodecahydropyrrolo [1,2-a]azocin-6-yl)carbamoyl)benzo[b]thiophen-5-yl)difluoromethyl) phosphonic acid]	100 to 1000 nM	300 to 3000 nM
O=C(NC1CCCC[C@H]2CC[C@@H](C(=O)N3CC(c4ccccc4)CC34CC4)N2C1=O)c1cc2cc(C(F)(F)P(=O)(O)O)ccc2s1 (stereo partly drawn) [Compound 89, (difluoro(2-(((3S,10aS)-5-oxo-3-(6-phenyl-4-azaspiro[2.4]heptane-4-carbonyl)decahydropyrrolo [1,2-a]azocin-6-yl)carbamoyl)benzo[b]thiophen-5-yl)methyl) phosphonic acid]	1000 to 10000 nM	≤ 300 nM
O=C(N[C@H]1CCCC[C@H]2CC[C@@H](C(=O)N3CC(C(=O)N4CCOCC4)C3)N2C1=O)c1cc2cc(C(F)(F)P(=O)(O)O)ccc2s1 [Compound 93, (difluoro(2-(((3S,6S,10aS)-3-(3-(morpholine-4-carbonyl)azetidine-1-carbonyl)-5-oxodecahydropyrrolo [1,2-a]azocin-6-yl)carbamoyl)benzo[b]thiophen-5-yl)methyl) phosphonic acid]	100 to 1000 nM	3000 to 30000 nM
